# Experiments:
# human heart chymase = biological target: T1, human heart chymase (Homo sapiens, UniProt P23946); experiment: biochemical; conditions: Chymase inhibitive activity (IC50), Ang I substrate, 37° C., 30 min, pH 7.5
# T1 sequence (P23946 22-247): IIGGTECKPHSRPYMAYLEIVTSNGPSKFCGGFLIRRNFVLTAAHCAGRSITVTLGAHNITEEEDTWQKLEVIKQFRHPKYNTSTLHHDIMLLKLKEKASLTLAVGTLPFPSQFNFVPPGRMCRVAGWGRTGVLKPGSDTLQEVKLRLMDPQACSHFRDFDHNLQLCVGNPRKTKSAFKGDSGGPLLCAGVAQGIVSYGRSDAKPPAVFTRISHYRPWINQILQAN
# Method: That is, to 10 μl of a 20 mM trisphosphate buffer (pH 7.5) containing 2MKCl were added 10 μl of purified chymase and 5 μl of a dimethylsulfoxide (hereinafter referred to as DMSO) solution of the test sample. The mixture was preincubated at 37° C. for 10 minutes, then 25 μl of a 1 mM Ang I solution was added and the mixture preincubated at 37° C. for 30 minutes. Next, 50 μl of 30% acetic acid was added to stop the enzymatic reaction. At the same time, a blind test was performed by adding, instead of the test sample solution, 5 μl of DMSO and performing the same reaction.
# The reacted solution was subjected to high performance liquid chromatography using Develosil ODS-5 (made by Nomura Kagaku, .phi.4.6 mm×150 mm) and developed at a flow rate of 2.0 ml/min in 0.05% TFA by a straight concentration gradient raising the acetonitrile from 0% to 60% over 10 minutes. This was monitored by the absorbance at 210 nm and the peaks identified by comparison with standard samples of Ang I and Ang II. The peak areas were measured by an integrating meter to quantitatively analyze the Ang I and Ang II and calculate the chymase activity.
# [1] = biological target: T2, human neutrophil derived cathepsin G (Homo sapiens, UniProt P08311); experiment: Measurement of cathepsin G inhibitive activity (conversion of Ang I to Ang II, HPLC); format: biochemical; conditions: Ang I substrate, 37° C., 30 min, pH 7.5
# T2 sequence (P08311 21-244 limits assumed): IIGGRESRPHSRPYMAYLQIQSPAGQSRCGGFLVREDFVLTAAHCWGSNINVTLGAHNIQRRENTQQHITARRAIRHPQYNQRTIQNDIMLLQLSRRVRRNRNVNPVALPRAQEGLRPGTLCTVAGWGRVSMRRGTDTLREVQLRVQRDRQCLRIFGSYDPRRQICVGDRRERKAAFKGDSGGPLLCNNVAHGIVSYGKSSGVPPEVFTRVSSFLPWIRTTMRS
# [2] = biological target: T3, bovine pancreatic α-chymotrypsin (Bos taurus, UniProt P00766); experiment: Measurement of chymotrypsin inhibitive activity (Ang I, HPLC); format: biochemical; conditions: bovine pancreatic α-chymotrypsin; Ang I substrate; 37° C., 15 min; pH 7.5
# T3 construct: purchased Sigma Co. Type II; host or cells: bovine pancreas
SMILES,IC50 (human heart chymase),IC50 [1],IC50 [2]
O=C(O)c1ccc(S(=O)(=O)n2c(=O)[nH]c3cc(Cl)ccc3c2=O)cc1,3100 nM,580 nM,25000 nM
Cc1ccc2[nH]c(=O)n(S(=O)(=O)c3ccc(Cl)cc3)c(=O)c2c1 [Example 3],3900 nM,64400 nM,3500 nM
"C=CCOC(=O)c1ccc(S(=O)(=O)n2c(=O)[nH]c3cc(Cl)ccc3c2=O)cc1 [Example 5, 3-(4-allyloxycarbonylbenzenesulfonyl)-7-chloro-2,4(1H,3H)-quinazolinedione]",–,340 nM,2000 nM
"COc1cccc2c(=O)n(S(=O)(=O)c3ccc(Cl)cc3)c(=O)[nH]c12 [Example 7, 3-(4-chlorobenzenesulfonyl)-8-methoxy-2,4(1H,3H)-quinazolinedione]",23000 nM,3200 nM,1900 nM
"Cc1ccc(S(=O)(=O)n2c(=O)[nH]c3cc(Cl)ccc3c2=O)cc1C [Example 9, 7-chloro-3-(3,4-dimethylbenzenesulfonyl)-2,4(1H,3H)-quinazolinedione]",1600 nM,480 nM,2500 nM
"O=c1[nH]c2cc(Cl)ccc2c(=O)n1S(=O)(=O)c1ccccc1 [Example 11, 7-chloro-3-benzenesulfonyl-2,4 3(1H,3H)-quinazolinedione]",730 nM,250 nM,3000 nM
"O=c1[nH]c2cc(Cl)ccc2c(=O)n1S(=O)(=O)c1ccc([N+](=O)[O-])cc1 [Example 13, 7-chloro-3-(4-nitrobenzenesulfonyl)-2,4(1H,3H)-quinazolinedione]",850 nM,34 nM,240 nM
"O=C(O)c1cccc(S(=O)(=O)n2c(=O)[nH]c3cc(Cl)ccc3c2=O)c1 [Example 15, 3-(3-carboxybenzenesulfonyl)-7-chloro-2,4(1H,3H)-quinazolinedione]",2400 nM,790 nM,4800 nM
"COC(=O)c1ccc(S(=O)(=O)n2c(=O)[nH]c3cc(Cl)ccc3c2=O)cc1 [Example 19, 7-chloro-3-(4-methoxycarbonylbenzenesulfonyl)-2,4(1H,3H)-quinazolinedione]",200 nM,160 nM,400 nM
"O=c1[nH]c2cc3ccccc3cc2c(=O)n1S(=O)(=O)c1ccc(Cl)cc1 [Example 35, 3-(4chlorobenzenesulfonyl)-2,4(1H,3H)-benzo[g]quinazolinedione]",2400 nM,–,1400 nM
O=C(Cn1c(=O)n(S(=O)(=O)c2ccc(Cl)cc2)c(=O)c2ccc(Cl)cc21)Nc1cccc(OP(=O)(O)O)c1 [Example 105],25 nM,–,–
"O=c1[nH]c2cc(Cl)ccc2c(=O)n1S(=O)(=O)c1ccc[nH]1 [Example 125, 7-chloro-3-(pyrrole-2-sulfonyl)-2,4(1H,3H)-quinazolinedione]",29000 nM,–,–
"O=c1[nH]c2cc(Cl)ccc2c(=O)n1S(=O)(=O)c1ccc(Cl)cc1F [Example 134, 7-chloro-3-(4-chloro-2-fluorobenzenesulfonyl)-2,4(1H,3H)-quinazolinedione]",1800 nM,–,–
"O=c1[nH]c2cc(Cl)ccc2c(=O)n1S(=O)(=O)c1ccc(C(F)(F)F)cc1 [Example 136, 7-chloro-3-(4-trifluoromethylbenzenesulfonyl)-2,4(1H,3H)-quinazolinedione]",460 nM,–,–
"O=c1[nH]c2cc(Cl)ccc2c(=O)n1S(=O)(=O)c1ccc(OCCBr)cc1 [Example 145, 7-chloro-3-[4-(2-bromoethyloxy)benzenesulfonyl]-2,4(1H,3H)-quinazolinedione]",1500 nM,–,–
"CC(=O)c1ccc(S(=O)(=O)n2c(=O)[nH]c3cc(Cl)ccc3c2=O)cc1 [Example 149, 3-(4-acetylbenzenesulfonyl)-7-chloro-2,4(1H,3H)-quinazolinedione]",570 nM,–,–
O=c1[nH]c2cc(O)ccc2c(=O)n1S(=O)(=O)c1ccc(Cl)cc1 [Example 151],2800 nM,–,–

# More lines, now with the values ahead:
IC50 (human heart chymase),IC50 [1],IC50 [2],SMILES
210 nM,–,–,"CC[n+]1cccc(NC(=O)Cn2c(=O)n(S(=O)(=O)c3ccc(C)cc3)c(=O)c3ccc(Cl)cc32)c1 [Example 95, 3-{7-chloro-[3-(4-methylbenzene-sulfonyl)-3-(4-methoxybenzenesulfonyl)-2,4(1H,3H)-quinazolinedion-1-yl]acetylamino}-N-ethylpyridinium iodide]"
210 nM,–,–,"N[C@@H](Cc1ccc(NC(=O)Cn2c(=O)n(S(=O)(=O)c3ccc(Cl)cc3)c(=O)c3ccc(Cl)cc32)cc1)C(=O)O [Example 99, [7-chloro-3-(4-chlorobenzenesulfonyl)-2,4(1H,3H)-quinazolinedion-1-yl]-N-(4-L-phenylalaninyl)acetamide]"
280 nM,–,–,"O=C(Cn1c(=O)n(S(=O)(=O)c2ccc(Cl)cc2)c(=O)c2ccc(Cl)cc21)Nc1ccc(C(=O)O)cc1C(=O)O [Example 101, [7-chloro-3-(4-chlorobenzenesulfonyl)-2,4 (1H,3H)-quinazolinedion-1-yl]-N-(2,4-dicarboxylphenyl)acetamide]"
4600 nM,–,–,"Cn1ccc(S(=O)(=O)n2c(=O)c3ccc(Cl)cc3n(CC(=O)Nc3cccnc3)c2=O)c1 [Example 103, [7-chloro-3-(1-methylpyrrole-3-sulfonyl)-2,4(1H,3H)-quinazolinedion-1-yl]-N-(3-pyridyl)acetamide]"
230 nM,–,–,"N=C(N)Nc1ccc(Cn2c(=O)n(S(=O)(=O)c3ccc(Cl)cc3)c(=O)c3ccc(Cl)cc32)cc1 [Example 107, 7-chloro-3-(4-chlorobenzenesulfonyl)-1-(4-guanidinobenzyl)-2,4(1H,3H)-quinazolinedione]"
1300 nM,–,–,"O=C(Cn1c(=O)n(S(=O)(=O)c2ccc(Cl)cc2)c(=O)c2ccc(Cl)cc21)c1ccccc1 [Example 108, 7-chloro-3-(4-chlorobenzenesulfonyl)-1-phenacyl-2,4(1H,3H)-quinazolinedione]"
240 nM,–,–,"O=c1c2ccc(Cl)cc2n(COCc2ccccc2)c(=O)n1S(=O)(=O)c1ccc(Cl)cc1 [Example 109, 1-(benzyloxymethyl)-7-chloro-3-(4-chlorobenzenesulfonyl)-2,4(1H,3H)-quinazolinedione]"
130 nM,–,–,"O=C(O)CCCOc1ccc(NC(=O)Cn2c(=O)n(S(=O)(=O)c3ccc(Cl)cc3)c(=O)c3ccc(Cl)cc32)cc1 [Example 111, [7-chloro-3-(4-chlorobenzenesulfonyl)-2,4(1H,3H)-quinazolinedion-1-yl]-N-(4-(3-carboxylpropyloxy)phenyl)acetamide]"
46 nM,–,–,"O=c1c2ccc(Cl)cc2n(Cc2cccnc2)c(=O)n1S(=O)(=O)c1ccc(Cl)cc1 [Example 114, 7-chloro-3-(4-chlorobenzenesulfonyl)-1-(3-pyridylmethyl)-2,4(1H,3H)-quinazolinedione]"
340 nM,–,–,"O=C(Cn1c(=O)n(S(=O)(=O)c2ccc(-c3cc[nH]n3)cc2)c(=O)c2ccc(Cl)cc21)Nc1cccnc1 [Example 121, {7-chloro-3-[4-(3-pyrazolyl)benzenesulfonyl]-2,4(1H,3H)-quinazolinedion-1-yl}-N-(3-pyridlyl)acetamide]"
580 nM,–,–,"O=C(Cn1c(=O)n(S(=O)(=O)c2cccnc2)c(=O)c2ccc(Cl)cc21)Nc1cccnc1 [Example 123, [7-chloro-3-(pyridine-3-sulfonyl)-2,4-(1H,3H)-quinazolinedion-1-yl]-N-(3-pyridyl)acetamide]"
60 nM,–,–,"O=C(Cn1c(=O)n(S(=O)(=O)c2ccc(Cl)cc2)c(=O)c2ccc(Cl)cc21)Nc1ccc(Cl)cc1 [Example 140, [7-chloro-3-(4-chlorobenzenesulfonyl)-2,4(1H,3H)-quinazolinedion-1-yl]-N-(4-chlorophenyl)acetamide]"
